Results reported in US8802597B2, “Herbicidal pyrimidines” (E I du Pont de Nemours and Company, priority 2003, dated 2014).

Legend:
Type in all cases: in vivo
[1] = test system: redroot pigweed (Amaranthus retroflexus); assay: Test A pre/postemergence
Outline: (§1)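 Visual injury scores on a 0–100 scale, 100 being complete control, were assigned roughly ten days after treatment by comparison with untreated greenhouse controls. Test chemicals, formulated with surfactant in non-phytotoxic solvent, were sprayed onto soil preemergence and onto 1–2-leaf plants 2–10 cm tall postemergence.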

[2] = test system: giant foxtail (Setaria faberi); assay: Test A pre/postemergence
Outline: as §1

[3] = test system: velvetleaf (Abutilon theophrasti); assay: Test A pre/postemergence
Outline: as §1

[4] = test system: morningglory (Ipomoea spp.); assay: Test A pre/postemergence
Outline: as §1

[5] = test system: barnyardgrass (Echinochloa crus-galli); assay: Test A pre/postemergence
Outline: as §1

[6] = test system: crabgrass (Digitaria sanguinalis); assay: Test A pre/postemergence
Outline: as §1

[7] = test system: transplanted rice seedlings (Oryza sativa cv. ‘Japonica-M202’); assay: Test E flooded paddy water application; conditions: Flood, 21 days, scale 0 to 100 (0 no effect, 100 complete control)
Outline: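 Response scored visually on a 0–100 scale (100 = complete control) at 21 days against untreated pots. Treatment was into paddy water 3 cm deep over silt loam, with plants at the 2.0–2.5-leaf stage, grown under 16-h light at 29.5/26.7 °C day/night.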

[8] = test system: late watergrass (Echinochloa oryzicola); assay: Test E flooded paddy water application; conditions: Flood, 21 days, scale 0 to 100 (0 no effect, 100 complete control)
Outline: (§2)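 Weeds sown in sterilized Tama silt loam (2.6% organic matter), greenhouse 29.5/26.7° C, 16-h photoperiod; at 2.0–2.5-leaf stage pots flooded to 3 cm and compound added to paddy water. Visual rating vs untreated controls after 21 days, 0 (no effect) to 100 (complete control).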

[9] = test system: ducksalad (Heteranthera limosa); assay: Test E flooded paddy water application; conditions: Flood, 21 days, scale 0 to 100 (0 no effect, 100 complete control)
Outline: as §2

[10] = test system: smallflower umbrella sedge (Cyperus difformis); assay: Test E flooded paddy water application; conditions: Flood, 21 days, scale 0 to 100 (0 no effect, 100 complete control)
Outline: as §2

[11] = test system: purple redstem (Ammannia coccinea); assay: Test E flooded paddy water application; conditions: Flood, 21 days, scale 0 to 100 (0 no effect, 100 complete control)
Outline: as §2

[12] = test system: junglerice (Echinochloa colona); assay: Test E flooded paddy water application; conditions: Flood, 21 days, scale 0 to 100 (0 no effect, 100 complete control)
Outline: as §2

[13] = test system: bearded (brdd.) sprangletop (Leptochloa fusca ssp. fascicularis); assay: Test E flooded paddy water application; conditions: Flood, 21 days, scale 0 to 100 (0 no effect, 100 complete control)
Outline: as §2

[14] = test system: water seeded rice seedlings (Oryza sativa cv. ‘Japonica-M202’); assay: Test E flooded paddy water application; conditions: Flood, 21 days, scale 0 to 100 (0 no effect, 100 complete control)
Outline: as §2

[15] = test system: barnyardgrass (Echinochloa crus-galli); assay: Test E flooded paddy water application; conditions: Flood, 21 days, scale 0 to 100 (0 no effect, 100 complete control)
Outline: as §2

[16] = test system: rice flatsedge (Cyperus iria); assay: Test E flooded paddy water application; conditions: Flood, 21 days, scale 0 to 100 (0 no effect, 100 complete control)
Outline: as §2

[17] = test system: early watergrass (Echinochloa oryzoides); assay: Test E flooded paddy water application; conditions: Flood, 21 days, scale 0 to 100 (0 no effect, 100 complete control)
Outline: as §2

[18] = Postemergence, 125 g ai/ha, 0 to 100 scale (0 no effect, 100 complete control)
[19] = Postemergence, 500 g ai/ha, 0 to 100 scale (0 no effect, 100 complete control)
[20] = Preemergence, 125 g ai/ha, 0 to 100 scale where 0 is no effect and 100 is complete control, approximately ten days
[21] = Preemergence, 500 g ai/ha, 0 to 100 scale where 0 is no effect and 100 is complete control, approximately ten days

## CCOC(=O)c1nc(-c2ccc(Cl)cc2Cl)nc(N)c1Cl [Compound 72]
[1]; [18]
  Plant response rating, Pigweed: 95
[1]; [19]
  Plant response rating, Pigweed: 95
[1]; [20]
  Plant response rating, Pigweed: 75
[1]; [21]
  Plant response rating, Pigweed: 100
[2]; [18]
  Plant response rating, Foxtail, Giant: 0
[2]; [19]
  Plant response rating, Foxtail, Giant: 0
[2]; [20]
  Plant response rating, Foxtail, Giant: 0
[2]; [21]
  Plant response rating, Foxtail, Giant: 0
[3]; [18]
  Plant response rating, Velvetleaf: 85
[3]; [19]
  Plant response rating, Velvetleaf: 85
[3]; [20]
  Plant response rating, Velvetleaf: 40
[3]; [21]
  Plant response rating, Velvetleaf: 55
[4]; [18]
  Plant response rating, Morningglory: 55
[4]; [19]
  Plant response rating, Morningglory: 70
[4]; [20]
  Plant response rating, Morningglory: 0
[4]; [21]
  Plant response rating, Morningglory: 0
[5]; [18]
  Plant response rating, Barnyardgrass: 0
[5]; [19]
  Plant response rating, Barnyardgrass: 0
[5]; [20]
  Plant response rating, Barnyardgrass: 0
[5]; [21]
  Plant response rating, Barnyardgrass: 0
[6]; [18]
  Plant response rating, Crabgrass: 10
[6]; [19]
  Plant response rating, Crabgrass: 30
[6]; [20]
  Plant response rating, Crabgrass: 0
[6]; [21]
  Plant response rating, Crabgrass: 0
[7]; 32 g ai/ha
  Rice, Transplanted plant response rating: 0
[7]; 64 g ai/ha
  Rice, Transplanted plant response rating: 0
[7]; 125 g ai/ha
  Rice, Transplanted plant response rating: 0
[7]; 250 g ai/ha
  Rice, Transplanted plant response rating: 0
[7]; 16 g ai/ha
  Plant response rating, Rice, Transplanted: 0
[8]; 32 g ai/ha
  Watergrass, Late plant response rating: 0
[8]; 64 g ai/ha
  Watergrass, Late plant response rating: 0
[8]; 125 g ai/ha
  Watergrass, Late plant response rating: 0
[8]; 250 g ai/ha
  Watergrass, Late plant response rating: 0
[8]; 16 g ai/ha
  Plant response rating, Watergrass, Late: 0
[9]; 32 g ai/ha
  Ducksalad plant response rating: 80
[9]; 64 g ai/ha
  Ducksalad plant response rating: 100
[9]; 125 g ai/ha
  Ducksalad plant response rating: 100
[9]; 250 g ai/ha
  Ducksalad plant response rating: 100
[9]; 16 g ai/ha
  Plant response rating, Ducksalad: 80
[10]; 32 g ai/ha
  Sedge, Umbrella plant response rating: 30
[10]; 64 g ai/ha
  Sedge, Umbrella plant response rating: 75
[10]; 125 g ai/ha
  Sedge, Umbrella plant response rating: 90
[10]; 250 g ai/ha
  Sedge, Umbrella plant response rating: 100
[10]; 16 g ai/ha
  Plant response rating, Sedge, Umbrella: 0
[11]; 32 g ai/ha
  Redstem plant response rating: 25
[11]; 64 g ai/ha
  Redstem plant response rating: 25
[11]; 125 g ai/ha
  Redstem plant response rating: 35
[11]; 250 g ai/ha
  Redstem plant response rating: 100
[11]; 16 g ai/ha
  Plant response rating, Redstem: 0
[12]; 32 g ai/ha
  Junglerice plant response rating: 0
[12]; 64 g ai/ha
  Junglerice plant response rating: 0
[12]; 125 g ai/ha
  Junglerice plant response rating: 0
[12]; 250 g ai/ha
  Junglerice plant response rating: 0
[12]; 16 g ai/ha
  Plant response rating, Junglerice: 0
[13]; 32 g ai/ha
  Sprangletop, Brdd. plant response rating: 0
[13]; 64 g ai/ha
  Sprangletop, Brdd. plant response rating: 0
[13]; 125 g ai/ha
  Sprangletop, Brdd. plant response rating: 0
[13]; 250 g ai/ha
  Sprangletop, Brdd. plant response rating: 0
[13]; 16 g ai/ha
  Plant response rating, Sprangletop, Brdd.: 0
[14]; 32 g ai/ha
  Rice, Water Seeded plant response rating: 0
[14]; 64 g ai/ha
  Rice, Water Seeded plant response rating: 0
[14]; 125 g ai/ha
  Rice, Water Seeded plant response rating: 0
[14]; 250 g ai/ha
  Rice, Water Seeded plant response rating: 0
[14]; 16 g ai/ha
  Plant response rating, Rice, Water Seeded: 0
[15]; 32 g ai/ha
  Barnyardgrass plant response rating: 0
[15]; 125 g ai/ha
  Barnyardgrass plant response rating: 0
[15]; 250 g ai/ha
  Barnyardgrass plant response rating: 0
[16]; 32 g ai/ha
  Flatsedge, Rice plant response rating: 100
[16]; 64 g ai/ha
  Flatsedge, Rice plant response rating: 100
[16]; 125 g ai/ha
  Flatsedge, Rice plant response rating: 100
[16]; 250 g ai/ha
  Flatsedge, Rice plant response rating: 100
[16]; 16 g ai/ha
  Plant response rating, Flatsedge, Rice: 90
[17]; 32 g ai/ha
  Watergrass, Early plant response rating: 0
[17]; 64 g ai/ha
  Watergrass, Early plant response rating: 0
[17]; 125 g ai/ha
  Watergrass, Early plant response rating: 0
[17]; 250 g ai/ha
  Watergrass, Early plant response rating: 0
[17]; 16 g ai/ha
  Plant response rating, Watergrass, Early: 0
